Experimental data published in patent US20230144619A1, “SALT OF ARYLAMINOPURINE DERIVATIVE, PREPARATION METHOD THEREFOR AND USE THEREOF” (CSPC Zhongqi Pharmaceutical Technology (Shijiazhuang) Co., …, priority 2020, published 2023).
≈ marks a conversion by molar mass, not a printed value.

Assays:
[1] = Accelerated stability test; assay type: physicochemical
Method: Appropriate amounts of the salt samples obtained from Examples 1 and 3-17 were placed at a temperature of 25±2° C. under 0%±5% RH in an open environment for 10 days and at a temperature of 40±2° C. under 75%±5% RH in an open environment for 10 days respectively to perform the accelerated tests, and the results were as follows: […]

[2] = Solubility test (UV spectrophotometer, saturated solutions shaken 24 hours); assay type: physicochemical; settings: for Solubility, Water medium pH = 1.2 / Solubility, Water medium pH = 4.5 / Solubility, Water medium pH = 6.8 / Solubility, Water medium: 25° C.; for Solubility, Water medium pH = 1.2: pH=1.2 hydrochloric acid solution; for Solubility, Water medium pH = 4.5: pH=4.5 phosphate buffer solution; for Solubility, Water medium pH = 6.8: pH=6.8 phosphate buffer solution; for Solubility, Water medium: water (purified water)
Method: Detection instrument: Ultraviolet spectrophotometer/Evolution 300
The following solutions with pH=1.2, pH=4.5, and pH=6.8 and water were used as the solvent, and the solvent preparation process was as follows:
(1) pH=1.2 hydrochloric acid solution: To 7.65 mL of hydrochloric acid was added 1000 mL of water, and the mixture was shaken uniformly to obtain the target solution.
(2) pH=4.5 phosphate buffer solution: 6.8 g of potassium dihydrogen phosphate was taken and diluted with water to 1000 mL, and the mixture was shaken uniformly to obtain the target solution.
(2) pH=6.8 phosphate buffer solution: 6.8 g of potassium dihydrogen phosphate and 0.896 g of sodium hydroxide were taken and diluted with water to 1000 mL, and the mixture was shaken uniformly to obtain the target solution.
(4) Water: purified water
Test tubes with stopper were taken, and 10 mL of dissolution media at various pH values were precisely added to the test tubes respectively, and excessive stock drugs were added until supersaturated solutions were formed. The adding amounts were recorded. The solutions were shaken uniformly, sealed with stoppers, and shaken for 24 hours in a shaker. 2 mL of solutions were taken out at different time points respectively, and centrifuged. The resulting supernatants were taken, filtered, and the subsequent filtrates were taken for later use.
The above-mentioned saturated solutions in different solvents were taken, and solvents were added to dilute the solutions to certain volumes. The absorbances were measured at a wavelength of 287 nm.
Preparation of a solution of the reference substance: an appropriate amount of the compound represented by Formula 1 was taken as the reference substance, and precisely weighed. A solvent was added to dissolve and dilute the reference compound to produce a solution containing about 10 μg of the compound represented by Formula 1 per 1 mL. The absorbance was measured at a wavelength of 287 nm to calculate the solubility.
The salts obtained in Examples 1 and 3-17 and the compound represented by Formula 1 were subjected to the solubility test in media and the test results were shown in the following table: […]

DSC and TGA tests = assay type: physicochemical; settings: onset temperature
Method: 6. Differential Scanning Calorimetry-Thermogravimetric Analysis (DSC-TGA)
Detection instrument: NETZSCH STA 449F3
Temperature range: 20° C.-350° C.;
Heating rate: 10.0 (K/min);
7. Differential Scanning Calorimetry (DSC)
Detection instrument: NETZSCH DSC 214 Polyma
Temperature range: 20° C.-250° C.;
Heating rate: 5.0 (K/min);
8. Thermogravimetric Analysis (TGA)
Detection instrument: METTLER and SDT Q600
The salts obtained in Examples 1 and 3-17 and the compound represented by Formula 1 were subjected to the DSC and TGA tests in media, and the test results were shown in the following table: […]

Hygroscopicity test = assay type: physicochemical; settings: 25±1° C., relative humidity 80%±2% (DVS, 80% RH)
Method: Detection instrument: XPE105DR
(1) A dry stoppered glass weighing bottle was taken, placed in a suitable constant-temperature desiccator at 25° C. 1° C. (with a saturated solution of ammonium chloride or ammonium sulfate in the lower part) or an artificial climate box (with the set temperature of 25° C.±1° C. and the relative humidity of 80%±2%) on the day before the test, and precisely weighed and recorded as the weight (m1).
(2) An appropriate amount of the test sample was taken and spread in the above-mentioned weighing bottle. The thickness of the test sample was generally about 1 mm, and the bottle was precisely weighed and recorded as the weight (m2).
(3) The stopper was removed to open the weighing bottle, and the opened weighing bottle and the stopper were placed under the above-mentioned constant temperature and humidity conditions for 24 hours.
(4) The opened weighing bottle was stoppered, precisely weighed, and recorded as the weight (m3).
Percentage increase in mass=(m3−m2)/(m2−m1)×100%
(5) The description of hygroscopicity characteristics and the definition for the weight gain due to hygroscopicity:
Deliquescence: Sufficient water was absorbed to form a liquid.
Very hygroscopic: the weight gain due to hygroscopicity was not less than 15%.
Hygroscopic: the weight gain due to hygroscopicity was less than 15% but not less than 2%.
Slightly hygroscopic: the weight gain due to hygroscopicity was less than 2% but not less than 0.2%.
Not or nearly not hygroscopic: the weight gain due to hygroscopicity was less than 0.2%.
Appropriate amounts of the salt samples obtained from Examples 1 and 3-17 were subjected to the hygroscopicity test at a temperature of 25±1° C. under a relative humidity of 80%±2%, and the results were as follows: […]

leukemia = settings: background statement; cited from earlier work
[3] = tested on: MV4-11 (FLT3-ITD mutation) subcutaneous tumor model; settings: human leukemia MV4-11 transplantation tumors in nude mice, background statement; cited from earlier work
[4] = tested on: human non-small cell lung cancer HCC827; settings: lung cancer HCC827 transplantation tumors in nude mice, background statement; cited from earlier work
lung cancer = settings: background statement; cited from earlier work
[5] = tested on: lung cancer (PC-9) transplantation tumors; settings: lung cancer PC-9 transplantation tumors in nude mice, background statement; cited from earlier work
[6] = tested on: K562 (BCR-Abl gene rearrangement) subcutaneous tumor model; settings: human leukemia K562 transplantation tumors in nude mice, background statement; cited from earlier work
[7] = Placed at 25 ± 2° C. under 0% ± 5% RH in an open environment for 10 days
[8] = Placed at 40 ± 2° C. under 75% ± 5% RH in an open environment for 10 days

Row | SMILES | Appearance [1, 7] | Appearance [1, 8] | Solubility, Water medium pH = 1.2 [2] | Solubility, Water medium pH = 4.5 [2] | Solubility, Water medium pH = 6.8 [2] | Solubility, Water medium [2] | TGA: starting to lose the acid (DSC and TGA tests) | TGA: starting to lose the water of crystallization (DSC and TGA tests) | Hygroscopicity (Hygroscopicity test) | Weight gain due to hygroscopicity (Hygroscopicity test) | anti-leukemia activity compared with Sunitinib (leukemia) | efficacy on transplantation tumors [3] | efficacy on transplantation tumors [4] | solubility in water (in words) ([2]; water) | anti-lung cancer activity compared with Gefitinib (lung cancer) | TGA: starting to decompose (DSC and TGA tests) | efficacy on transplantation tumors [5] | efficacy on transplantation tumors [6]
1 | CC(C)n1c(Nc2cccnc2)nc2cnc(Nc3ccc(N4CCN(C)CC4)cc3)nc21 [Example 11] | Yellow solid | Yellow solid | 87.38 mg/mL | 16.13 mg/mL | 8.61 mg/mL | 27.78 mg/mL (≈ 62.6 mM) | ~220 °C (see FIG. 31) | crystallization at about 40° C.; | Slightly hygroscopic (the weight gain due to hygroscopicity was less than 2% but not less than 0.2%.) | 0.68% |  |  |  |  |  |  |  | 
2 | CC(C)n1c(Nc2cccnc2)nc2cnc(Nc3ccc(N4CCN(C)CC4)cc3)nc21 [Example 14] | Off-white solid | Off-white solid | 41.47 mg/mL | 0.72 mg/mL | 0.03 mg/mL | 0.04 mg/mL (≈ 0.0902 mM) | ~80 °C (see FIG. 37) | crystallization at about 40° C.; | Slightly hygroscopic (the weight gain due to hygroscopicity was less than 2% but not less than 0.2%.) | 1.59% |  |  |  |  |  |  |  | 
3 | CC(C)n1c(Nc2cccnc2)nc2cnc(Nc3ccc(N4CCN(C)CC4)cc3)nc21 [Example 15] | Off-white solid | Off-white solid | 96.58 mg/mL | 45.67 mg/mL | 27.84 mg/mL | 63.57 mg/mL (≈ 143 mM) | ~80 °C (see FIG. 39) | crystallization at about 40° C.; | Hygroscopic (the weight gain due to hygroscopicity was less than 15% but not less than 2%.) | 2.59% |  |  |  |  |  |  |  | 
4 | CC(C)n1c(Nc2cccnc2)nc2cnc(Nc3ccc(N4CCN(C)CC4)cc3)nc21 [The compound represented by Formula 1, 9-isopropyl-2-(4-(4-methylpiperazin-1-yl)anilino)-8-(pyridine-3-amino)-9H-purine] |  |  | 12.60 mg/mL | 0.57 mg/mL | 0.04 mg/mL | 0.05 mg/mL |  |  | Slightly hygroscopic (the weight gain due to hygroscopicity was less than 2% but not less than 0.2%.) | 0.45% | better than that of Sunitinib | remarkable efficacy | remarkable efficacy | insoluble in water | comparable to that of Gefitinib | ~155 °C (see FIG. 42) | remarkable efficacy | remarkable efficacy
